Structures are written as SMILES.

In data set [1] the test system is ovariectomised female Sprague Dawley rats. Kind of data set: Female rat sexual proceptivity (time investigating male vs female stimulus). In kind it is in vivo. How it is done:
Ovariectomised adult female Sprague Dawley rats (180-200 g, from Charles River) were housed in groups of 6 in a reversed lighting system of 12 h light:dark (lights off 7.00-19.00 h). Two weeks after ovariectomy they were used for sexual activity tests. The experiments started at least 5 h into the dark period.
Tests were carried out in a circular arena of 90 cm diameter, surrounded by a 30 cm high wall. Two small cages with wire-mesh front (15×15 cm) are fixed into the wall such that the front of the cage is <> with the wall and the 2 cages are opposite each other. They contained two stimuli animals: an intact sexually experienced male and a receptive female (ovariectomised, primed with 5 μg oestradiol benzoate dissolved in corn oil and injected subcutaneously 48 hours before the test and with 0.5 mg of progesterone four hours before the test). Sexually naive test and control animals were used. Forty eight hours before the tests, both the test and control animals were primed with 5 μg oestradiol benzoate. For animals used as positive controls, progesterone (0.5 mg/0.1 ml) was dissolved in corn oil and administered subcutaneously (s.c.), 4 h before the test. Test and control animals were introduced one at a time for 10 minute periods into the arena. During the 10 min test, the time that the test or positive control animal spent investigating each stimulus animal was noted. The arena was thoroughly cleaned between animals. The position of the male/female stimuli boxes was randomised between animals, in order to avoid place preference. The difference in the percentage of time spent investigating the male minus the female stimuli was calculated, out of the total time spent investigating stimuli animals.
Compound (1) was dissolved in 100% β-cyclodextrin and then diluted with saline to a final solution of 50% 2-hydroxypropyl-β-cyclodextrin. It was administered intraperitoneally (i.p.) at doses of 3 and 10 mg/kg, in a dosing volume of 1 ml/kg, 1 h before tests. Progesterone (0.5 mg/0.1 ml) was dissolved in corn oil and administered subcutaneously (s.c.), 4 h before test, as a positive control.
Ovariectomised adult female Sprague Dawley rats (180-200 g) were housed in groups of 5 in a reversed lighting system of 12 h light:dark (lights off 5.00-17.00 h). They were used for the experiments at least two weeks after ovariectomy. Forty eight hours before tests, the animals were primed with oestradiol benzoate (5 μg/0.1 ml in corn oil, s.c.). On day 1, progesterone (0.5 mg/0.1 ml, in corn oil, s.c.) was administered to one of the groups 4 h before tests, as a positive control. Compound (1) (15 mg/kg, i.p.) was administered in 50% 2-hydroxypropyl-β-cyclodextrin, 1 h before tests. The test lasted 10 minutes and was carried out as described before. The difference in the percentage of time spent investigating the male minus the female stimuli was calculated, out of the total time spent investigating stimuli animals. Animals were submitted to a test on day 1 and on day 15. From day 2 to 14 the Compound (1) group received a daily injection of the compound (15 mg/kg, i.p.), while both the vehicle and the progesterone groups received an injection of vehicle. On day 15 the test took place again, as described for day 1.
Ovariectomised female rats (Sprague Dawley, obtained from Charles River, UK) were stereotaxically implanted (coordinates 0.89 mm behind Bregma, 1.3 mm lateral and 2.5 mm vertical) with stainless steel cannulae (6 mm long, O.D. 0.75 mm), held in place with dental cement. Animals were housed in groups of three and returned to a reversed lighting system of 12 h light:dark (lights off 5.00-17.00 h). Correct placement of the cannulae was assessed post-mortem. Rats were used for tests two weeks after ovariectomy (one week after cannulation). The experiments started at least 5 h into the dark period. […]

The test system of data set [2] is Female New Zealand rabbits. Kind of data set: Pelvic nerve-stimulated female genital blood flow, anaesthetised rabbit model of sexual arousal. As to conditions: 15 mg/kg sc. Type of data set: in vivo. As for the experimental part:
Female New Zealand rabbits (2.5 kg) were pre-medicated with a combination of Medetomidine (Domitor®) 0.5 ml/kg im., and Ketamine (Vetalar®) 0.25 ml/kg i.m. whilst maintaining oxygen intake via a face mask. The rabbits were tracheotomised using a Portex™ uncuffed endotracheal tube 3 ID., connected to ventilator and maintained at a ventilation rate of 30-40 breaths per minute, with an approximate tidal volume of 18-20 ml, and a maximum airway pressure of 10 cm H2O. Anaesthesia was then switched to Isoflurane and ventilation continued with O2 at 2 l/min. The right marginal ear vein was cannulated using a 23G or 24G catheter, and Lactated Ringer solution perfused at 0.5 ml/min. The rabbit was maintained at 3% Isoflurane during invasive surgery, dropping to 2% for maintenance anaesthesia.
The left groin area of the rabbit was shaved and a vertical incision was made approximately 5 cm in length along the thigh. […] Systolic and diastolic pressures were measured, and the mean arterial pressure calculated using the formula (diastolic ×2+systolic)÷3. Heart rate was measured via the pulse oxymeter and Po-ne-mah data acquisition software system (Ponemah Physiology Platform, Gould Instrument Systems Inc). […] A frequency response curve was determined at the start of each experiment in order to determine the optimum frequency to use as a sub-maximal response, normally 4 Hz. […]

On to `COc1ccc(C2(CNC(=O)[C@](C)(Cc3c[nH]c4ccccc34)NC(=O)Nc3ccc([N+](=O)[O-])cc3)CCCCC2)nc1` [Compound (1), (S) 3-(1H-Indol-3-yl)-N-[1-(5-methoxy-pyridin-2-yl)-cyclohexyl-methyl]-2-methyl-2-[3-(4-nitro-phenyl)-ureido]-propionamide], for which the “effect on proceptivity, day 1” value in data set [1] (day 1, Compound (1) 15 mg/kg i.p. 1 h before, progesterone 0.5 mg/0.1 ml s.c. 4 h before, vs vehicle, P<0.01) is recorded as “stimulatory effect on proceptivity”. For the same compound, the “MED, percentage of time spent investigating the male stimulus (proceptivity)” value amounted to 10 µg in data set [1] (i.c.v., 3-30 μg/rat, 10 min before test); 10 mg/kg in data set [1] (i.p., 3 and 10 mg/kg, 1 h before test, 50% 2-hydroxypropyl-β-cyclodextrin). Moreover, the “percentage of time spent investigating the male stimulus (proceptivity)” value in data set [1] (i.c.v., dose-dependently 3-30 μg/rat, 10 min before test) was “increased the percentage of time spent investigating the male stimulus”; in data set [1] (i.p., dose-dependently 3 mg/kg-10 mg/kg, 1 h before test, vs vehicle), “increased the percentage of time spent investigating the male stimulus”. In addition, the “body weight or general behaviour” value in data set [1] (repeated administration 15 mg/kg i.p. daily for 15 days) was “no changes in body weight or general behaviour”. Moreover, the “pelvic-nerve stimulated (PNS) increases in genital (vaginal and clitoral) blood flow” value in data set [2] is on record as “potent enhancer”.

These data come from patent US20040087561A1, “Treatment of sexual dysfunction” (priority 2000, published 2004).
